Experimental data from patent publication US20100086483A1, “METHOD OF MULTIDETECTOR COMPUTED TOMAGRAPHY” (Gilead Palo Alto, Inc., priority 2008, published 2010).

How the values were obtained:
[1] = Plasma caffeine concentrations in conscious dogs; type: in vivo; conditions: dog, intravenous, 10 mg/kg
Procedure: (§1) Three experiments were performed on each dog in the group.
(§2) Each dog received an IV injection of 5 μg/kg of regadenoson. […] LVSP, LV dP/dtMax, MAP, HR and CBF were recorded continuously. Blood samples were taken from the left atrial catheter at 1, 3, 5, 15, 30, 45 and 60 min following injections of regadenoson.

[2] = test system: normal subjects; test: Safety and tolerability of regadenoson with and without prior caffeine; type: in vivo, human
Procedure: 15O water was used as the radionuclide in the PET scans. There was a 1- to 14-day washout period between dosing days. Blood samples and measures of safety were collected until 120 minutes after study drug administration.
Safety measures included adverse events (AEs), serious adverse events, vital signs (HR and BP), ECG, concomitant medications, and a tolerability questionnaire. All available data from subjects who received the single dose of regadenoson were to be included in the statistical summaries.
ECG intervals and changes from baseline values in ECG intervals were to be presented, as were occurrences of rhythm or conduction abnormalities. Concomitant medication usage was to be summarized.
Tolerability questionnaire responses were to be analyzed using the Wilcoxen rank sum test (“How did you feel?” question) and the exact Cochran-Mantel-Haenszel test (Day 2-only question “How did this test compare to the first test?”).

[3] = test system: conscious dogs; test: Effects of caffeine alone on MAP and HR in conscious dogs (Part I); type: in vivo, dog
Procedure: Sixteen chronically instrumented male mongrel dogs weighing from 22-30 kg were used in the study. The animal protocol was approved by the Institutional Animal Care and Use Committee of New York Medical College and conforms to the Guide for the Care and Use of Laboratory Animal by the United States National Institutes of Health.
Dogs were sedated with acepromazine (0.3 mg/kg, IM) and anesthetized with pentobarbital sodium (25 mg/kg, IV). After intubation, dogs were artificially ventilated with room air. A thoracotomy was made in the fifth intercostal space using sterile techniques. A Tygon catheter (Cardiovascular Instruments, Wakefield, Mass.) was inserted into the descending thoracic aorta and another one was inserted into the left atrium. In 9 dogs, an ultrasound flow transducer (Transonic Systems, Ithaca, N.Y.) was placed around the left circumflex coronary artery. A solid-state pressure gauge (P6.5, Konisberg Instruments, Pasadena, Calif.) was placed into the left ventricle through the apex. The chest was closed in layers. The catheters and wires were tunneled subcutaneously and externalized through the skin at the back of the dog's neck. Dogs were allowed to recover from the surgery before experiments were performed, and were trained to lie on a table.
Phasic arterial pressure was measured by connecting the aortic catheter to a strain gauge transducer (P23 ID, LDS Test and Measurement, Valley View, Ohio). Left ventricular pressures were measured by the solid pressure gauge. CBF (mL/min) was measured from an ultrasound flow transducer using a Transonic flowmeter (T206, Transonic Systems, Ithaca, N.Y.). Two indices were used to describe the regadenoson-induced coronary vasodilation: 1) the maximum increase in CBF and 2) the duration of the 2-fold increase in CBF (the period of time that CBF was elevated to a level ≧2-fold of baseline CBF). All pressure and flow data were acquired and analyzed using a Ponemah System (Version 3.30 or 4.20, LDS Test and Measurement, Valley View, Ohio). MAP and HR were calculated from phasic blood pressure, and LV dP/dtMax was calculated from the left ventricular systolic pressure.
On the day of an experiment, a dog was placed on a table, where it lay quietly during the experiment. A catheter was inserted into a peripheral vein in the leg and attached to an infusion line to administer drugs without disturbing the dog. The experiment was begun after MAP, HR and CBF were stable.
as §1
The statistical significance of a difference between the value of a parameter at baseline and at the indicated time point after drug administration was determined using a One-Way Repeated Measures ANOVA followed by Tukey's Test. […] Results with p<0.05 were considered to be significant. A computer-based software package (SigmaStat 2.03) was used for statistical analysis. All data are presented as Mean±SEM.

[4] = test system: conscious dogs; test: Effects of regadenoson on HR and CBF before and after metoprolol in conscious dogs; type: in vivo, dog; conditions: for duration of two-fold increase in CBF: in the presence of metoprolol 1.5 mg/kg
Procedure: Five mongrel dogs were chronically instrumented for measurements of systemic hemodynamics and coronary blood flow (CBF). The effects of regadenoson (1, 2.5 and 5 μg/kg, IV) on HR and CBF were assessed before and after administration of the β1-adrenergic receptor blocker metoprolol (1.5 mg/kg). Values of peak CBF and the duration of the two-fold increase in CBF above baseline were used to assess Reg-induced coronary vasodilation.

[5] = Plasma regadenoson concentrations in conscious dogs; type: in vivo, dog
Procedure: as §2

[6] = caffeine 200 mg po vs placebo, regadenoson 400 μg IV, p<0.001
[7] = caffeine 200 mg po, regadenoson 400 μg IV
[8] = regadenoson 400 μg IV, 25/43 subjects
[9] = Reg 1 μg/kg IV, before metoprolol
[10] = Reg 2.5 μg/kg IV, before metoprolol
[11] = Reg 5 μg/kg IV, before metoprolol

## Cn1c(=O)c2c(ncn2C)n(C)c1=O [Caffeine, caffeine]
[1]
  concentration at 45 min: 52 ± 2 µM
[2]; [6]
  tolerability questionnaire: comfort during the test with caffeine: felt more comfortable
  tolerability questionnaire: feeling after the caffeine test vs the placebo test: felt better
[2]; [7]
  effect of caffeine on severity of AEs: attenuated
  effect of caffeine on systolic or diastolic blood pressures in the presence of regadenoson: no effect
  overall incidence of AEs, placebo vs caffeine groups: no difference
[2]; caffeine 200 mg po, regadenoson 400 μg IV, p<0.001
  effect of caffeine on HR increase caused by regadenoson: attenuated
[2]; caffeine 200 mg po, regadenoson 400 μg IV, p=0.012
  regadenoson-induced headache severity with caffeine: decreased
[3]; caffeine 2 mg/kg IV
  changes in MAP and HR: no significant changes
[3]; caffeine 2 mg/kg IV, 2.5 min
  HR: 95 ± 5 beats/min
[3]; caffeine 2 mg/kg IV, 5 min
  HR: 91 ± 5 beats/min
[3]; caffeine 2 mg/kg IV, 15 min
  HR: 85 ± 6 beats/min
[3]; caffeine 2 mg/kg IV, 30 min
  HR: 81 ± 7 beats/min
[3]; caffeine 2 mg/kg IV, 60 min
  HR: 90 ± 9 beats/min
[3]; caffeine 2 mg/kg IV, 90 min
  HR: 87 ± 5 beats/min
[3]; caffeine 2 mg/kg IV, 120 min
  HR: 88 ± 6 beats/min
[3]; caffeine 4 mg/kg IV
  change in HR: without a significant change
[3]; caffeine 4 mg/kg IV, 2.5 min
  HR: 104 ± 5 beats/min
[3]; caffeine 4 mg/kg IV, 5 min
  HR: 102 ± 4 beats/min
[3]; caffeine 4 mg/kg IV, 15 min
  HR: 88 ± 6 beats/min
  MAP: 99 ± 4 mm Hg
[3]; caffeine 4 mg/kg IV, 30 min
  HR: 90 ± 7 beats/min
[3]; caffeine 4 mg/kg IV, 60 min
  HR: 85 ± 7 beats/min
[3]; caffeine 4 mg/kg IV, 90 min
  HR: 90 ± 7 beats/min
[3]; caffeine 4 mg/kg IV, 120 min
  HR: 86 ± 5 beats/min
[3]; caffeine 4 mg/kg IV, at both 2.5 and 5 min after injection
  increase in MAP: ~12 mm Hg
[3]; caffeine 10 mg/kg IV, 2.5 min
  HR: 100 ± 4 beats/min
[3]; caffeine 10 mg/kg IV, 5 min
  HR: 101 ± 4 beats/min
[3]; caffeine 10 mg/kg IV, 15 min
  HR: 93 ± 5 beats/min
[3]; caffeine 10 mg/kg IV, 30 min
  HR: 87 ± 5 beats/min
  MAP: 101 ± 3 mm Hg
[3]; caffeine 10 mg/kg IV, 60 min
  HR: 83 ± 2 beats/min
[3]; caffeine 10 mg/kg IV, 90 min
  HR: 80 ± 5 beats/min
[3]; caffeine 10 mg/kg IV, 120 min
  HR: 80 ± 4 beats/min
  MAP: 102 ± 2 mm Hg

## CNC(=O)c1cnn(-c2nc(N)c3ncn([C@@H]4O[C@H](CO)[C@@H](O)[C@H]4O)c3n2)c1 [Regadenoson, (1-{9-[(4S,2R,3R,5R)-3,4-dihydroxy-5-(hydroxymethyl)oxolan-2-yl]-6-aminopurin-2-yl}pyrazol-4-yl)-N-methylcarboxamide]
[2]; regadenoson 400 μg IV
  AE sensation of heaviness, percentage of subjects: 28%
  QTc prolongation (>500 msec and change of >60 msec) by ECG analysis after regadenoson dosing: one subject
  first degree AV block by ECG analysis after regadenoson dosing: one subject
[2]; regadenoson 400 μg IV with and without caffeine
  deaths or SAEs: no reported deaths or SAEs
[2]; regadenoson 400 μg IV, 1/43
  patients with at least one AE considered possibly related to regadenoson treatment: 2%
[2]; regadenoson 400 μg IV, 1/43 subjects
  AEs: ear and labyrinth disorders, percentage of subjects: 2%
[2]; regadenoson 400 μg IV, 2/43 subjects
  AEs: gastrointestinal disorders, percentage of subjects: 5%
[2]; regadenoson 400 μg IV, 4/43
  subjects with at least one AE with a maximum severity of severe: 9%
[2]; regadenoson 400 μg IV, 8/43
  AE paraesthesia, percentage of subjects: 19%
[2]; regadenoson 400 μg IV, 11/43 subjects
  AEs: general disorders and administration site conditions, percentage of subjects: 26%
[2]; regadenoson 400 μg IV, 12/43
  AE headache, percentage of subjects: 28%
[2]; regadenoson 400 μg IV, 12/43 subjects
  AEs: musculoskeletal and connective tissue disorders, percentage of subjects: 28%
[2]; regadenoson 400 μg IV, 13/43
  AE flushing, percentage of subjects: 30%
[2]; regadenoson 400 μg IV, 13/43 subjects
  AEs: vascular disorders, percentage of subjects: 30%
[2]; regadenoson 400 μg IV, 18/43 subjects
  AEs: nervous system disorders, percentage of subjects: 42%
[2]; regadenoson 400 μg IV, 21/43
  AE palpitations, percentage of subjects: 49%
  subjects with at least one AE with a maximum severity of moderate: 49%
[2]; regadenoson 400 μg IV, 24/43
  AE dyspnoea, percentage of subjects: 56%
[2]; [8]
  AEs: cardiac disorders, percentage of subjects: 58%
  AEs: respiratory, thoracic and mediastinal disorders, percentage of subjects: 58%
[2]; regadenoson 400 μg IV, forty percent
  subjects with at least one AE with a maximum severity of mild: 17/43
[2]; regadenoson 400 μg IV, ninety-five percent
  subjects with at least one AE considered probably related to regadenoson treatment: 41/43
[4]; Reg 1 μg/kg IV, after metoprolol 1.5 mg/kg IV
  increase in HR (ΔHR): 19±4 bpm
[4]; [9]
  duration of 2-fold increase in CBF: 93 ± 22 s
  increase in HR (ΔHR): 49±8 bpm
  increase in peak CBF (ΔCBF): 129 ± 10 mL/min
[4]; Reg 1 μg/kg IV
  duration of two-fold increase in CBF: 71 ± 34 s
[4]; Reg 1 μg/kg IV, in the presence of metoprolol 1.5 mg/kg (NS)
  increase in peak CBF (ΔCBF): 112 ± 5 mL/min
[4]; Reg 2.5 μg/kg IV, after metoprolol 1.5 mg/kg IV
  increase in HR (ΔHR): 28±3 bpm
[4]; [10]
  duration of 2-fold increase in CBF: 316 ± 57 s
  increase in HR (ΔHR): 63±5 bpm
  increase in peak CBF (ΔCBF): 149 ± 7 mL/min
[4]; Reg 2.5 μg/kg IV
  duration of two-fold increase in CBF: 215 ± 45 s
[4]; Reg 2.5 μg/kg IV, in the presence of metoprolol 1.5 mg/kg (NS)
  increase in peak CBF (ΔCBF): 136 ± 16 mL/min
[4]; Reg 5 μg/kg IV, after metoprolol 1.5 mg/kg IV
  increase in HR (ΔHR): 39±5 bpm
[4]; [11]
  duration of 2-fold increase in CBF: 593 ± 86 s
  increase in HR (ΔHR): 71±7 bpm
  increase in peak CBF (ΔCBF): 174 ± 10 mL/min
[4]; Reg 5 μg/kg IV
  duration of two-fold increase in CBF: 364 ± 86 s
[4]; Reg 5 μg/kg IV, in the presence of metoprolol 1.5 mg/kg (p<0.05)
  increase in peak CBF (ΔCBF): 138 ± 9 mL/min
[5]; caffeine at 1, 2, 4 or 10 mg/kg
  pharmacokinetic profiles of regadenoson in presence of caffeine: not changed
[5]; regadenoson 5 μg/kg IV, absence of caffeine
  time of peak plasma regadenoson concentration: ~1 min
